# Measured values taken from publication PMC11061149, “Protein mimetic 2D FAST rescues alpha synuclein aggregation mediated early and post disease Parkinson’s phenotypes” (Nature Communications, 2024).
# Tests used:
# αS = target: T1, αS (Homo sapiens, UniProt P37840); test: Isothermal titration calorimetry (ITC); type: binding; conditions: ligand titrated into 15 μM αS in PBS; read-out: dissociation constant (Kd)
# T1 construct: made in house; host or cells: E. coli BL21(DE3)
# Procedure: The ITC experiments were performed in a NANO-ITC (TA Instruments, New Castle, DE). For each ITC experiment, a solution of 250 μM NS132 in PBS was serially titrated (2 μL injections […] via rotary syringe, stirring speed at 300 rpm) into a sample cell containing 350 μL of 15 μM αS in the same buffer conditions at 300 sec intervals. The heat associated with each injection was calculated by integrating each heat burst curve using NanoAnalyze software (TA Instruments, New Castle, DE). The associated heat for each injection of NS132 in αS solution was corrected by subtracting heat resulted from the titration of NS132 into buffer (in 1 × PBS) under identical conditions. The corrected heat values were plotted as a function of the molar ratio of NS132 to αS and the plot was fitted using a one binding site independent model available in NanoAnalyze software. The fitting was carried out using 10,000 iterations in the software without any data constraints during the fitting. The ITC titrations were conducted in triplicate and the reported thermodynamic parameters were calculated as an average of three independent experiments.
# 15N-labeled αS monomer = target: T2, 15N-labeled αS monomer (Homo sapiens, UniProt P37840); test: 2D 1H-15N HSQC NMR of 15N-labeled αS with ligand; type: binding; conditions: 70 µM 15N-αS + equimolar ligand, V/V0
# T2 construct: purchased rpeptide, Bogart, GA
# Procedure: A solution of ^15N αS was prepared by resuspending 1 mg of uniformly labeled ^15N αS (rpeptide, Bogart, GA) in 1 mL Milli-Q water to yield a 70 μM αS solution in 20 mM Tris-HCl pH 7.4, 100 mM NaCl. The protein was buffer exchanged to Milli-Q water, lyophilized, and stored at –80 °C. For the preparation of NMR experiments, the lyophilized ^15N αS powder was dissolved in the NMR buffer (300 μL, 20 mM NaPO4 pH 6.4, 5% D2O, v/v) to make a final concentration of 70 μM. The protein concentration was confirmed with a NanoDrop One (Thermo Scientific, Waltham, MA) at 280 nm using an extinction coefficient of 5960 M^-1cm^-1. The solutions were transferred into Shigemi BMS-005 NMR tube (Shigemi, Tokyo, Japan) and the two-dimensional ^1H-^15N HSQC NMR experiments were performed on a 600 MHz Bruker Avance Neo (CU Anschutz, NMR core facility, CO) instrument equipped with a triple resonance HCN cryoprobe. Data was collected at 12 °C on Topspin 4.9.0 software (Bruker, Billerica, MA). The HSQC spectra were recorded using a data matrix consisting of 1024 (t2, ^1H) × 160 (t1, ^15N) complex points. Resonance assignments were determined utilizing a previous publication[83] and the data analysis was performed using MestReNova software.
# For the HSQC experiments titrating NS132 into ^15N αS, the same experimental conditions were used as above. Incrementally, NS132 was added to a single ^15N αS solution, mixed, kept at r.t. for 10 min and HSQC was recorded under the conditions stated above. For HSQC experiments containing pre-formed fibrils (PFF) of αS, 5.4 eq. of PFF solution (500 μM) was added to monomeric ^15N αS solution, and the spectra was recorded as previously stated.
# αS fibers = target: T3, αS fibers (Homo sapiens, UniProt P37840); test: Transmission electron microscopy (TEM) of αS solutions; type: biochemical
# T3 construct: made in house; host or cells: E. coli BL21(DE3)
# Procedure: Transmission Electron Microscopy was used to visualize protein assemblies after aggregation experiments as previously described. Briefly, aliquots (5 μL) of αS solutions (with or without ligands) were applied on glow-discharged carbon-coated 300-mesh copper grids for 2 min and dried using Kimwipes (Kimberly-Clark, Irving, TX). The copper grids were negatively stained for 1 min with uranyl acetate (0.75%, w/v). The micrographs were taken on an FEI Tecnai G2 Biotwin TEM at 80 kV accelerating voltages.
smiles,measurement,setting,value
Cc1ccc(NC(=O)c2ccc(NC(=O)c3ccc([N+](=O)[O-])c(NCCc4c[nH]c5ccccc45)n3)c(NCC3CCCCC3)n2)c(OCC(=O)O)n1 [NS132],Kd,αS,1.81 ± 0.33 µM
same,"Change in volume of peaks, αS residue A11",15N-labeled αS monomer,0.12
same,"Change in volume of peaks, αS residue A17",15N-labeled αS monomer,0.33
same,"Change in volume of peaks, αS residue A18",15N-labeled αS monomer,0.55
same,"Change in volume of peaks, αS residue A19",15N-labeled αS monomer,0.15
same,"Change in volume of peaks, αS residue A56",15N-labeled αS monomer,0.13
same,"Change in volume of peaks, αS residue A78",15N-labeled αS monomer,0.03
same,"Change in volume of peaks, αS residue A89",15N-labeled αS monomer,0.12
same,"Change in volume of peaks, αS residue A90",15N-labeled αS monomer,0.08
same,"Change in volume of peaks, αS residue A107",15N-labeled αS monomer,0.04
same,"Change in volume of peaks, αS residue E13",15N-labeled αS monomer,0.05
same,"Change in volume of peaks, αS residue E20",15N-labeled αS monomer,0.17
same,"Change in volume of peaks, αS residue E46",15N-labeled αS monomer,0.14
same,"Change in volume of peaks, αS residue G14",15N-labeled αS monomer,0.1
same,"Change in volume of peaks, αS residue G31",15N-labeled αS monomer,0.08
same,"Change in volume of peaks, αS residue G36",15N-labeled αS monomer,0.1
same,"Change in volume of peaks, αS residue G41",15N-labeled αS monomer,0.31
same,"Change in volume of peaks, αS residue G68",15N-labeled αS monomer,0.06
same,"Change in volume of peaks, αS residue G93",15N-labeled αS monomer,0.04
same,"Change in volume of peaks, αS residue H50",15N-labeled αS monomer,0.52
same,"Change in volume of peaks, αS residue K10",15N-labeled αS monomer,0.12
same,"Change in volume of peaks, αS residue K12",15N-labeled αS monomer,0.77
same,"Change in volume of peaks, αS residue K43",15N-labeled αS monomer,0.42
same,"Change in volume of peaks, αS residue L38",15N-labeled αS monomer,0.05
same,"Change in volume of peaks, αS residue L100",15N-labeled αS monomer,0.09
same,"Change in volume of peaks, αS residue S42",15N-labeled αS monomer,0.46
same,"Change in volume of peaks, αS residue S129",15N-labeled αS monomer,0.14
same,"Change in volume of peaks, αS residue T22",15N-labeled αS monomer,0.03
same,"Change in volume of peaks, αS residue T59",15N-labeled αS monomer,0.26
same,"Change in volume of peaks, αS residue T64",15N-labeled αS monomer,0.08
same,"Change in volume of peaks, αS residue T75",15N-labeled αS monomer,0.22
same,"Change in volume of peaks, αS residue V3",15N-labeled αS monomer,0.04
same,"Change in volume of peaks, αS residue V15",15N-labeled αS monomer,0.61
same,"Change in volume of peaks, αS residue V16",15N-labeled αS monomer,0.09
same,"Change in volume of peaks, αS residue V37",15N-labeled αS monomer,0.08
same,"Change in volume of peaks, αS residue V40",15N-labeled αS monomer,0.13
same,"Change in volume of peaks, αS residue V66",15N-labeled αS monomer,0.04
same,"Change in volume of peaks, αS residue V77",15N-labeled αS monomer,0.16
same,"Change in volume of peaks, αS residue V82",15N-labeled αS monomer,0.09
same,"Change in volume of peaks, αS residue Y39",15N-labeled αS monomer,0.21
same,"αS fibers seen in TEM images, in words",αS fibers; 100 µM αS aggregated for four days with ligand,did not observe αS fibers
same,"αS fibers seen in TEM images, in words","αS fibers; fibers-catalyzed aggregation of αS, 60 h, equimolar NS132",significantly fewer αS fibers
